Experiments:
[1] = target: T1, human cystic fibrosis conductance transmembrane regulator (CFTR) (Homo sapiens, UniProt P13569); test: Effect upon CFTR chloride ion channel activity (YFP fluorescence quenching by iodide influx in FRT cells); assay type: cell-based; conditions: for CFTR activity ratio, result in words: 30 μM, comment on Table 2; for Emax at 30 µM: FRT, 10 min, final concentration of 30 μM, reaction for 10 minutes, ratio based on the CFTR activity maximized by forskolin
T1 construct: expressed in transfected cells; host or cells: FRT cells (Fischer rat thyroid epithelial cells)
Experimental: FRT cells expressing […] specific to human cystic fibrosis conductance transmembrane regulator (CFTR) and iodide ions are cultured in the Coon's modified F-12 culture medium for 48 hours on a 96-well plate. Each well of the plate containing the cultured cells is washed three times with 200 μl of PBS buffer, and then 100 μl of PBS buffer is added to each well. The indolizino[3,2-c]quinoline derivative according to each Example is introduced to each well to a final concentration of 30 μM, followed by reaction for 10 minutes. After the completion of the reaction, the 96-well is mounted to a FLUOstar Omega microplate reader (BMG LABTECH) and 100 μl of NaI solution is added to each well. Then, YFP fluorescence reduced by the iodide ions introduced to the cells through CFTR is recorded at an interval of 0.4 seconds for 24 seconds in total, thereby evaluating the effect of each compound upon CFTR activity.
The effect of each indolizino[3,2-c]quinoline derivative upon CFTR chloride ion channel activity is calculated as an activity ratio based on the CFTR activity maximized by a well-known CFTR agonist, forskolin.

T1 sequence (P13569 whole entry): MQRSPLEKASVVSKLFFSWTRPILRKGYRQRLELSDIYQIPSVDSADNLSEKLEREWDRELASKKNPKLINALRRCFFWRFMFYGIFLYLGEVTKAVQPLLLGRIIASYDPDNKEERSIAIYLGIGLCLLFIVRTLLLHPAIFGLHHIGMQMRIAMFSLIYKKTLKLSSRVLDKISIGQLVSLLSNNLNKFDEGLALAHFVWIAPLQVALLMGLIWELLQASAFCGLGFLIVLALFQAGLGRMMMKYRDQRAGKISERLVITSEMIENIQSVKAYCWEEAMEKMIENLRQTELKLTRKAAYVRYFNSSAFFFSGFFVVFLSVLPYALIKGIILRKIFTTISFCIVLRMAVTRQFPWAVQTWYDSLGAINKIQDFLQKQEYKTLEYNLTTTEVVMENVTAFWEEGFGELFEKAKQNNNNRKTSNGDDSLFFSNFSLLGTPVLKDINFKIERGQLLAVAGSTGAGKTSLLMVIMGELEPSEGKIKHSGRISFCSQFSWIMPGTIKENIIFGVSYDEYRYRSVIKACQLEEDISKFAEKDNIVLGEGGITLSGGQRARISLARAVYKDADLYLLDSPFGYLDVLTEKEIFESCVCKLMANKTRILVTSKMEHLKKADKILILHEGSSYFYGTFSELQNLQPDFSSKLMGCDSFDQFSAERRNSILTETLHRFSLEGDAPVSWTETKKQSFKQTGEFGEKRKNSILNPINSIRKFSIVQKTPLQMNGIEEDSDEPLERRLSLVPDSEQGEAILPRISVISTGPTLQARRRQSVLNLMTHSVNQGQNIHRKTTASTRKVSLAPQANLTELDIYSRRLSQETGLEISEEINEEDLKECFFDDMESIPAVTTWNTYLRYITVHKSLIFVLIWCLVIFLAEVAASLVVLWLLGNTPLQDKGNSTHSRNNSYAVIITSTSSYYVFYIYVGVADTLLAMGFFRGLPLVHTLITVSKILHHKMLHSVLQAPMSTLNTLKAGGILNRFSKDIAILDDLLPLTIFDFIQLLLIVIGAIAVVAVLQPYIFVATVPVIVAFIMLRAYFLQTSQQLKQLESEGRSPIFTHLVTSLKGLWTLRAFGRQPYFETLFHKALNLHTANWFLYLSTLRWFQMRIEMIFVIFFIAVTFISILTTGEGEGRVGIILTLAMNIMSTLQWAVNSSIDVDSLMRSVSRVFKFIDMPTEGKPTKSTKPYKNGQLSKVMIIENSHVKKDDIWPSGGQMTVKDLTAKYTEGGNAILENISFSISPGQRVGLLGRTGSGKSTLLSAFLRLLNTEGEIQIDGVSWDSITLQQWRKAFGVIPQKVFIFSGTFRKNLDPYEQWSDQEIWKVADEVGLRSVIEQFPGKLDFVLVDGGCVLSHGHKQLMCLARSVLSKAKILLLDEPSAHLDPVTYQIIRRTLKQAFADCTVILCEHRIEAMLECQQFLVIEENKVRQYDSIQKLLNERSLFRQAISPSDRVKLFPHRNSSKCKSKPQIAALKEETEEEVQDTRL

| Compound | melting point [°C] | CFTR activity ratio, result in words [1] | Emax at 30 µM [1] [%] |
| --- | --- | --- | --- |
| COC(=O)c1c2c3ccccc3nc(-c3cccc4ccccc34)c2n2ccccc12 [Example 32, Methyl 6-(naphthalene-1-yl)indolizino[3,2-c]quinoline-12-carboxylate] | 245.8 to 246.2 |  |  |
| COc1ccc(-c2nc3ccccc3c3c(Br)c4ccccn4c23)cc1 [Example 44, 12-Bromo-6-(4-methoxyphenyl)indolizino[3,2-c]quinoline] | 221.6 to 221.9 |  |  |
| CCOC(=O)c1c2c3ccccc3nc(-c3ccc4ccccc4c3)c2n2ccccc12 [Example 39, Ethyl 6-(naphthalene-2-yl)indolizino[3,2-c]quinoline-12-carboxylate] | 210.3 to 210.7 |  |  |
| CCOC(=O)c1c2c3ccccc3nc(-c3cccc(F)c3)c2n2ccccc12 [Example 34, Ethyl 6-(3-fluorophenyl)indolizino[3,2-c]quinoline-12-carboxylate] | 202.1 to 202.4 |  |  |
| c1ccc2c(-c3nc4ccccc4c4cc5ccc(-c6ccoc6)cn5c34)cccc2c1 [Example 43, 9-(Furan-3-yl)-6-(naphthalene-1 yl)indolizino[3,2-c]quinoline] | 91.3 to 92 |  |  |
| COc1ccc(-c2nc3ccccc3c3cc4ccc(-c5ccc([N+](=O)[O-])cc5)cn4c23)cc1 [Example 41, 6-(4-Methoxyphenyl)-9-(4-nitrophenyl)indolizino[3,2-c]quinoline] | 256 to 256.6 |  |  |
| CCOC(=O)c1c2c3ccccc3nc(-c3cccc(OC)c3)c2n2ccccc12 [Example 37, Ethyl 6-(3-methoxyphenyl)indolizino[3,2-c]quinoline-12-carboxylate] | 173.4 to 173.8 |  |  |
| COC(=O)c1c2c3ccccc3nc(-c3cc(OC)cc(OC)c3)c2n2ccccc12 [Example 31, Methyl 6-(3,5-dimethoxyphenyl)indolizino[3,2-c]quinoline-12-carboxylate] | 205.9 to 206.3 | high activity ratio |  |
| COC(=O)c1c2c3ccccc3nc(-c3ccc[nH]3)c2n2ccccc12 [Example 33, Methyl 6-(1H-pyrrol-2-yl)indolizino[3,2-c]quinoline-12-carboxylate] | 230.8 to 231.4 |  | 37 |
| COc1ccc(-c2nc3ccccc3c3cc4ccc(Br)cn4c23)cc1OC [Example 26, 9-Bromo-6-(3,4-dimethoxyphenyl)indolizino[3,2-c]quinoline] | 188.5 to 189 |  |  |
| COc1ccc(-c2nc3ccccc3c3cc4c(C)cccn4c23)cc1OC [Example 22, 6-(3,4-Dimethoxyphenyl)-11-methylindolizino[3,2-c]quinoline] | 162.8 to 163.3 |  |  |
| Brc1ccc2cc3c4ccccc4nc(-c4ccc(Br)s4)c3n2c1 [Example 28, 9-Bromo-6-(5-bromothiophen-2-yl)indolizino[3,2-c]quinoline] | 223.3 to 223.7 |  |  |
| COC(=O)c1c2c3ccccc3nc(-c3ccc(Br)cc3)c2n2ccccc12 [Example 30, Methyl 6-(4-bromophenyl)indolizino[3,2-c]quinoline-12-carboxylate] | 232.3 to 232.5 |  |  |
| CCOC(=O)c1c2c3ccccc3nc(-c3cccc(Cl)c3)c2n2ccccc12 [Example 35] | 214.3 to 214.5 |  |  |
| CCOC(=O)c1c2c3ccccc3nc(-c3ccc(OC)c(OC)c3)c2n2ccccc12 [Example 38, Ethyl 6-(3,4-dimethoxyphenyl)indolizino[3,2-c]quinoline-12-carboxylate] | 195.5 to 195.8 |  | 31 |
| COc1cc(OC)cc(-c2nc3ccccc3c3cc4c(C)cccn4c23)c1 [Example 21, 6-(3,5-Dimethoxyphenyl)-11-methylindolizino[3,2-c]quinoline] | 185.8 to 186.4 |  | 66 |
| CCOC(=O)c1c2c3ccccc3nc(-c3ccc([N+](=O)[O-])cc3)c2n2ccccc12 [Example 36, Ethyl 6-(4-nitrophenyl)indolizino[3,2-c]quinoline-12-carboxylate] | 245.8 to 246.1 |  |  |
| COc1cc(OC)cc(-c2ccc3cc4c5ccccc5nc(-c5cccc6ccccc56)c4n3c2)c1 [Example 42, 9-(3,5-Dimethoxyphenyl)-6-(naphthalene-1-yl)indolizino[3,2-c]quinoline] | 177.5 to 177.8 |  |  |

Other lines, results leading:

| melting point [°C] | CFTR activity ratio, result in words [1] | Emax at 30 µM [1] [%] | Compound |
| --- | --- | --- | --- |
| 164.3 to 164.7 |  |  | COc1ccc(-c2nc3ccccc3c3cc4ccccn4c23)cc1 [Example 7, 6-(4-Methoxyphenyl)indolizino[3,2-c]quinoline] |
| 139.7 to 140.4 | high activity ratio | 63 | COc1cc(OC)cc(-c2nc3ccccc3c3cc4ccccn4c23)c1 [Example 10, 6-(3,5-Dimethoxyphenyl)indolizino[3,2-c]quinoline] |
| 141.9 to 142.8 |  |  | c1ccc(-c2nc3ccccc3c3cc4ccccn4c23)cc1 [Example 6, 6-Phenylindolizino[3,2-c]quinoline] |
| 229.5 to 230 |  |  | COc1ccc(-c2nc3ccccc3c3cc4ccc(Br)cn4c23)cc1 [Example 24, 9-Bromo-6-(4-methoxyphenyl)indolizino[3,2-c]quinoline] |
| 230.8 to 231.2 |  |  | Cc1ccc(-c2nc3ccccc3c3cc4ccc(Br)cn4c23)cc1 [Example 25, 9-Bromo-6-(p-tolyl)indolizino[3,2-c]quinolone] |
| 124.3 to 125.3 |  |  | Clc1cccc(-c2nc3ccccc3c3cc4ccccn4c23)c1 [Example 4, 6-(3-Chlorophenyl)indolizino[3,2-c]quinoline] |
| 85.3 to 86 |  |  | Cc1ccc(-c2nc3ccccc3c3cc4ccccn4c23)cc1 [Example 9, 6-(p-Tolyl)indolizino[3,2-c]quinoline] |
| 162.5 to 163.1 |  |  | Cc1ccc(-c2nc3ccccc3c3cc4c(C)cccn4c23)cc1 [Example 20, 11-Methyl-6-(p-tolyl)indolizino[3,2-c]quinoline] |
| 193.3 to 193.6 |  |  | Brc1ccc2cc3c4ccccc4nc(-c4ccco4)c3n2c1 [Example 29, 9-Bromo-6-(furna-2-yl)indolizino[3,2-c]quinoline] |
| 167 to 167.4 |  |  | Fc1ccc(-c2nc3ccccc3c3cc4ccccn4c23)cc1 [Example 2, 6-(4-Fluorophenyl)indolizino[3,2-c]quinoline] |
| 174 to 174.4 |  |  | COc1cccc(-c2nc3ccccc3c3cc4ccccn4c23)c1 [Example 8, 6-(3-Methoxyphenyl)indolizino[3,2-c]quinoline] |
| 176.1 to 176.5 |  | 50 | Cc1cccn2c1cc1c3ccccc3nc(-c3cccc(F)c3)c12 [Example 17, 6-(3-Fluorophenyl)-11-methylindolizino[3,2-c]quinoline] |
| 259.7 to 260.4 |  |  | Cc1cccn2c1cc1c3ccccc3nc(-c3ccc([N+](=O)[O-])cc3)c12 [Example 18, 11-Methyl-6-(4-nitrophenyl)indolizino[3,2-c]quinoline] |
| 91.3 to 92 |  |  | COc1ccc(-c2nc3ccccc3c3cc4ccccn4c23)cc1OC [Example 11, 6-(3,4-Dimethoxyphenyl)indolizino[3,2-c]quinoline] |
| 161.4 to 161.7 | high activity ratio | 98 | Clc1ccc(-c2nc3ccccc3c3cc4ccccn4c23)s1 [Example 15, 6-(5-Chlorothiophen-2-yl)indolizino[3,2-c]quinoline] |
| 205.5 to 205.8 | high activity ratio | 85 | Brc1ccc(-c2nc3ccccc3c3cc4ccccn4c23)cc1 [Example 1, 6-(4-Bromophenyl)indolizino[3,2-c]quinoline] |
| 190.5 to 191 |  |  | Clc1ccc(-c2nc3ccccc3c3cc4ccccn4c23)cc1 [Example 3, 6-(4-Chlorophenyl)indolizino[3,2-c]quinoline] |
| 165 to 166 |  |  | COc1cccc(-c2nc3ccccc3c3cc4c(C)cccn4c23)c1 [Example 19, 6-(3-Methoxyphenyl)-11-methylindolizino[3,2-c]quinoline] |
| 246.3 to 246.5 | high activity ratio | 93 | O=[N+]([O-])c1ccc(-c2nc3ccccc3c3cc4ccccn4c23)cc1 [Example 5, 6-(4-Nitrophenyl)indolizino[3,2-c]quinoline] |
| 205.6 to 206.2 | high activity ratio | 83 | c1ccc2cc(-c3nc4ccccc4c4cc5ccccn5c34)ccc2c1 [Example 13, 6-(Naphthalen-2-yl)indolizino[3,2-c]quinoline] |

Reference: patent publication US9296751B1, “Indolizino[3,2-c]quinoline derivatives, pharmaceutically acceptable salt thereof, preparation method thereof and pharmaceutical composition for treatment of cystic fibrosis containing the same as active ingredient” (INDUSTRY-ACADEMIC COOPERATION FOUNDATION, YONSEI UNIVERSITY, priority 2014, dated 2016)
